Assay results from a compilation of properties of binary mixtures (doi:10.1021/acs.jced.0c00447).

Assay: xn = mol fraction of the nth substance listed
Settings: 100 kPa

CC[n+]1ccn(C)c1.N#C[N-]C#N + OCC(F)(F)F
Settings	speed of sound [m/s]	viscosity [mPa·s]
298.15 K, x1 = 0.1031	1021.8	2.48
298.15 K, x1 = 0.1957	1150.9	3.2
298.15 K, x1 = 0.4905	1463.6	6.07
298.15 K, x1 = 0.5915	1544.5	7.25
298.15 K, x1 = 0.6943	1614.6	8.56
298.15 K, x1 = 0.7956	1673.5	9.95
298.15 K, x1 = 0.8915	1730.2	11.36
298.15 K, x1 = 1	1786.7	13.09
303.15 K, x1 = 0.1957	1137.7	2.81
303.15 K, x1 = 0.2936	1258.6	3.55
303.15 K, x1 = 0.3935	1366.8	4.39
303.15 K, x1 = 0.4905	1450.9	5.29
303.15 K, x1 = 0.6943	1602.2	7.46
303.15 K, x1 = 0.7956	1661.2	8.67
303.15 K, x1 = 0.8915	1717.9	9.91
303.15 K, x1 = 1	1774.6	11.39
308.15 K, x1 = 0.1031	995.3	1.96
308.15 K, x1 = 0.1957	1124.7	2.52
308.15 K, x1 = 0.2936	1245.8	3.17
308.15 K, x1 = 0.3935	1354.2	3.92
308.15 K, x1 = 0.4905	1438.3	4.71
308.15 K, x1 = 0.5915	1519.5	5.61
308.15 K, x1 = 0.6943	1590	6.6
308.15 K, x1 = 0.7956	1649.1	7.66
308.15 K, x1 = 1	1762.5	10
313.15 K, x1 = 0.1031	982.2	1.76
313.15 K, x1 = 0.1957	1111.8	2.27
313.15 K, x1 = 0.2936	1233.1	2.87
313.15 K, x1 = 0.3935	1341.7	3.54
313.15 K, x1 = 0.4905	1425.9	4.25
313.15 K, x1 = 0.5915	1507.3	5.04
313.15 K, x1 = 0.6943	1577.9	5.91
313.15 K, x1 = 0.7956	1637	6.83
313.15 K, x1 = 0.8915	1693.9	7.76
318.15 K, x1 = 0.1031	969.4	1.6
318.15 K, x1 = 0.3935	1329.4	3.23
318.15 K, x1 = 0.4905	1413.7	3.86
318.15 K, x1 = 0.5915	1495.2	4.57
318.15 K, x1 = 0.6943	1565.9	5.34
318.15 K, x1 = 0.7956	1625	6.15
318.15 K, x1 = 0.8915	1682	6.96
318.15 K, x1 = 1	1738.8	7.92
323.15 K, x1 = 0.1031	956.4	1.48
323.15 K, x1 = 0.1957	1086.4	1.93
323.15 K, x1 = 0.2936	1208.1	2.44
323.15 K, x1 = 0.3935	1317.1	2.99
323.15 K, x1 = 0.4905	1401.5	3.57
323.15 K, x1 = 0.5915	1483.2	4.2
323.15 K, x1 = 0.6943	1553.9	4.89
323.15 K, x1 = 0.7956	1613.1	5.6
323.15 K, x1 = 0.8915	1670.2	6.31
323.15 K, x1 = 1	1727.1	7.13

OCC(F)(F)F + CC[n+]1ccn(C)c1.N#C[N-]C#N
x2 = 0
Settings	speed of sound [m/s]	viscosity [mPa·s]
303.15 K	819.3	1.56
313.15 K	792.3	1.23
318.15 K	778.8	1.1
323.15 K	765.1	0.99
